# In ChEMBL document CHEMBL1201862, “PubChem BioAssay data set” (2004):
# The source made the active and inactive calls.
# Key:
# [1] = biological target: Troponin, cardiac muscle (Homo sapiens, UniProt P19429+P45379+P63316); assay: Fluorescence-based biochemical high throughput dose response assay for activators of the calcium sensitivity of cardiac Regulated Thin Filaments (RTF). [Related pubchem assays (depositor defined):AID493008, AID493018, AID504382, AID504383]; assay type: protein-complex assay
# [2] = biological target: T1, Cytochrome P450 1A2 (Homo sapiens, UniProt P05177);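 note: PubChem cytochrome P450 panel assay, CYP1A2 panel member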
# T1 sequence (P05177 whole entry): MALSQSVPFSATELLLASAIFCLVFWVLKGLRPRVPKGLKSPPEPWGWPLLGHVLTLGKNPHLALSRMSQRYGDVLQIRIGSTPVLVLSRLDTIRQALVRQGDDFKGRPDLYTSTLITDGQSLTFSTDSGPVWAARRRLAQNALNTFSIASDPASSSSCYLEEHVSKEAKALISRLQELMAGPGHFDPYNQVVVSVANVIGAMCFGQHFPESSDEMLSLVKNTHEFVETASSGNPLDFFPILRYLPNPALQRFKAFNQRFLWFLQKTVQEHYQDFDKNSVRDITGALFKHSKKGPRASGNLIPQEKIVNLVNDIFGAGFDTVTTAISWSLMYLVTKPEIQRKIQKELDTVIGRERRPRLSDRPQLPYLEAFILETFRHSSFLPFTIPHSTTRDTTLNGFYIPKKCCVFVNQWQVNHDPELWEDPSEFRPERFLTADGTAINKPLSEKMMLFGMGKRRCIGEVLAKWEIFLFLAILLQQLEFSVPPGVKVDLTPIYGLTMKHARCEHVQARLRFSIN
# [3] = biological target: Cytochrome P450 2D6 (Homo sapiens, UniProt P10635);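 note: CYP2D6 member of a cytochrome P450 panel assay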
# [4] = biological target: Keap1/Nrf2 (Homo sapiens, UniProt Q14145); assay: Keap1-Nrf2 protein-protein interaction inhibitors, dose response, biochemical, fluorescence polarization, cherry-picked samples (AID 588683)
# [5] = growth induction of Burl-1 ts yeast mutant, dose response, counter-screen for SUMOylation pathway inhibitor project, whole organism, S. cerevisiae, luminescence (AID 463199); assay type: functional
# [6] = biological target: Hexokinase-1 (Homo sapiens, UniProt P19367); assay: SAR analysis of small molecule inhibitors of hexokinase domain containing I (HKDC1) in the hexokinase 1 selectivity assay. [Related pubchem assays (depositor defined):AID493160, AID493190]; assay type: functional
# [7] = biological target: T2, Hexokinase HKDC1 (Homo sapiens, UniProt Q2TB90); assay: SAR analysis of small molecule inhibitors of hexokinase domain containing I (HKDC1). [Related pubchem assays (depositor defined):AID493160, AID493190]; assay type: functional
# T2 sequence (Q2TB90 whole entry): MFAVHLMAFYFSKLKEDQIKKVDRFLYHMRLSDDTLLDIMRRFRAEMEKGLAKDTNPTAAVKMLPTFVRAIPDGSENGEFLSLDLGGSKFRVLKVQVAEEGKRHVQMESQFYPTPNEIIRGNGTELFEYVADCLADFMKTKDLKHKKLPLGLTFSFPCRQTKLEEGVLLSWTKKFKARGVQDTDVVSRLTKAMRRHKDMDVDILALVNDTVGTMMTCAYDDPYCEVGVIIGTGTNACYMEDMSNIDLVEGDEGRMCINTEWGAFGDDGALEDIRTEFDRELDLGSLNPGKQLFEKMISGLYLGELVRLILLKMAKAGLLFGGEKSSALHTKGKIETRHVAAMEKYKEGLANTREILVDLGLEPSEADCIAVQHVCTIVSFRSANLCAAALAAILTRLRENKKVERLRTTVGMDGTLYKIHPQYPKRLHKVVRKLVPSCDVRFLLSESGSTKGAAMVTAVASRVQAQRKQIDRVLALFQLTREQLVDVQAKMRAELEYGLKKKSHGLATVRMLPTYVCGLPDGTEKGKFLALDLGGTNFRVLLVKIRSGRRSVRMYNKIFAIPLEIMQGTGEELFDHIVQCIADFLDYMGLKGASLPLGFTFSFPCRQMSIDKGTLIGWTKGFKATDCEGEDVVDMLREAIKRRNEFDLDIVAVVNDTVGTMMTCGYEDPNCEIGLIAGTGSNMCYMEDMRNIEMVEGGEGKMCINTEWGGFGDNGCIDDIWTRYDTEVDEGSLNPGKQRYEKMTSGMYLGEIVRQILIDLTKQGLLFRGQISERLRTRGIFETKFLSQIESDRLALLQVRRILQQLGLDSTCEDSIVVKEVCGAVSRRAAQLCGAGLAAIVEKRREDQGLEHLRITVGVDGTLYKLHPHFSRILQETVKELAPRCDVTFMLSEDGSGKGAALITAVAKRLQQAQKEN
# [8] = system: INS1; assay: caspase-3/7 inhibition in cytokine-treated INS-1E, dose response, beta-cell apoptosis inhibitor project, cell-based, caspase luminescence, dry powder (AID 488848); assay type: functional; settings: Rattus norvegicus
# [9] = system: HEK293; assay: cells; assay type: functional, cell-based; settings: Homo sapiens
# [10] = biological target: T3, Nuclear receptor subfamily 0 group B member 1 (Homo sapiens, UniProt P51843); assay: Luminescence-based cell-based high throughput dose response assay for inhibitors of the orphan nuclear receptor subfamily 0, group B, member 1 (DAX1; NR0B1). [Related pubchem assays (depositor defined):AID504766, AID504790]; assay type: functional
# T3 sequence (P51843 whole entry): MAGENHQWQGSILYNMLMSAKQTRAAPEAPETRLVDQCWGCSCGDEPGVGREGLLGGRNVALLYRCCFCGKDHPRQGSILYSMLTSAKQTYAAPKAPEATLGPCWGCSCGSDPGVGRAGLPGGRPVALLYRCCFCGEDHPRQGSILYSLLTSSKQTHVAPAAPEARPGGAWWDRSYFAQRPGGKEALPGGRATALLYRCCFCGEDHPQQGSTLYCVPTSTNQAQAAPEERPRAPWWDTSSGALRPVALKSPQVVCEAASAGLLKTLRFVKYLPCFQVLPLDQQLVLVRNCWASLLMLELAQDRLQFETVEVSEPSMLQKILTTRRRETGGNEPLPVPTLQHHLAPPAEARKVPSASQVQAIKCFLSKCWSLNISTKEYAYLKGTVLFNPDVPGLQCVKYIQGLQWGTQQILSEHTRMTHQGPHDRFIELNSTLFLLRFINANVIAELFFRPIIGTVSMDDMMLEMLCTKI
# [11] = biological target: T4, CAAX prenyl protease 2 (Saccharomyces cerevisiae S288c, UniProt Q03530); assay type: biochemical
# T4 sequence (Q03530 whole entry): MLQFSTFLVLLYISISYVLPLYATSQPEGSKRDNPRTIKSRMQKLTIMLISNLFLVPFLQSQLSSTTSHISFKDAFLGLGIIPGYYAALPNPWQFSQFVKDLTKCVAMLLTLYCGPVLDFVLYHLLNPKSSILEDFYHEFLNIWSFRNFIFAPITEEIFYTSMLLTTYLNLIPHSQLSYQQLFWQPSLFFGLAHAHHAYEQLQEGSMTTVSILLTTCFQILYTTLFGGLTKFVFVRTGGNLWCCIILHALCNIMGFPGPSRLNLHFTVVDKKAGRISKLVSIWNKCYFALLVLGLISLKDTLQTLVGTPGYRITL
# [12] = system: NIH3T3; assay: mammalian cell toxicity, NIH-3T3 fibroblasts, dose response, cytotoxicity control for reversing antifungal drug resistance, Alamar Blue, dry powder, set 3 (AID 488933); assay type: functional, cell-based; settings: Mus musculus
# [13] = biological target: Tyrosine-protein phosphatase non-receptor type 7 (Homo sapiens, UniProt P35236); assay: redox-dependent HePTP inhibition, mechanism study, biochemical, fluorescence (AID 2068); assay type: functional
# [14] = biological target: T5, Dual specificity protein phosphatase 3 (Homo sapiens, UniProt P51452); assay: SAR VHR1 Fluorescent Assay for In Vitro dose response studies. [Related pubchem assays (depositor defined):AID1654, AID1661, AID1878, AID1992, AID2004, AID2070, AID2085]; assay type: functional
# [15] = biological target: Dual specificity protein phosphatase 6 (Rattus norvegicus, UniProt Q64346); assay type: functional;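 note: confirmatory in vitro dose-response testing of MKP-3 inhibition; recombinant His-tagged MKP-3 made in E. coli BL21 with OMFP substrate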
# [16] = biological target: T5, Dual specificity protein phosphatase 3; assay: MOA VHR1 Fluorescent secondary assay for identification of redox-state modulating compounds. [Related pubchem assays (depositor defined):AID1654, AID1661, AID1878, AID1957]
# [17] = inhibitors of Trypanosoma cruzi host-cell infection, confirmation, beta-gal luminescence, NIH3T3 host cells (AID 2630); assay type: functional, cell-based; settings: Mus musculus
# [18] = Luminescence Cell-Based/Microorganism Confirmation at Dose of Inhibitors of Trypanosoma cruzi Infection. [Related pubchem assays: 1885, 1968 ]; assay type: functional
# [19] = Luminescence Cell-Based Secondary HTS screen to identify cytotoxic compounds of NIH3T3 cells. [Related pubchem assays: 1885, 1968 ]; assay type: functional
# [20] = biological target: T1, Cytochrome P450 1A2; remark: listed apart in the source
# [21] = biological target: Cytochrome P450 2C9 (Homo sapiens, UniProt P11712)
# [22] = NIH-3T3 fibroblast cytotoxicity, dose response, cytotoxicity control, cell-based, fluorescence, Alamar Blue, secondary assay (AID 2327); assay type: functional;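 note: NIH-3T3 mouse fibroblasts cultured with fluconazole at 8 µg/mL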
# [23] = biological target: Serine/threonine-protein phosphatase (Candida dubliniensis (strain CD36 / CBS 7987 / NCPF 3949 / NRRLY-17841) (Yeast), UniProt B9W6M3); assay: calcineurin pathway inhibitors in yeast reporter, dose response, S. cerevisiae, CDRE-lacZ, luminescence, secondary (AID 2388); assay type: functional, cell-based;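 note: yeast reporter cells carrying a calcineurin-responsive lacZ construct stimulated with calcium chloride; luminescent beta-galactosidase reporter signal in whole cells rather than isolated phosphatase activity; potency for inhibition where a drop in reporter signal means calcineurin blockade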
# [24] = C. albicans growth with fluconazole, confirmation, fluorescence, retest (AID 2467); assay type: functional, cell-based
# [25] = biological target: ATP-dependent molecular chaperone HSP82 (Candida albicans (strain WO-1) (Yeast), UniProt C4YTQ8); assay: loss of DOC-induced GRE-beta-galactosidase reporter signal, dose response, Hsp90 inhibitor project, S. cerevisiae, luminescence (AID 2400); assay type: functional, cell-based;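 note: beta-galactosidase luminescence from glucocorticoid response element reporter as proxy for Hsp90 function; inhibitor potency where signal loss means Hsp90 inhibition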
# [26] = luciferase reporter signal reduction – luminescence, H4-C neuroglioblastoma cells, dose response (AID 2458); assay type: functional, cell-based;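 note: H4 neuroglioblastoma cells stably carrying a luciferase reporter gene fusion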
# [27] = Luminescence Cell-Based Dose Response HTS to Identify Inhibitors of 5'UTR Stem-Loop Driven Prion Protein mRNA Translation in H4 Neuroglioblastoma Cells. [Related pubchem assays: 1827 (Project Summary), 1813 (Primary HTS)]; assay type: functional
# [28] = cytotoxicity in HEK-293T NF-kB-Luc cells, dose response, cytotoxicity control for B/T-cell NF-kB inhibitor project, cell-based, uHTS hits (AID 489019); assay type: functional;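 note: IC50 reflects cytotoxicity as loss of cell viability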
# [29] = system: Jurkat; assay: antigen receptor-induced NF-kB inhibitors, dose response, Jurkat, luciferase reporter, luminescence, B- and T-cell (AID 489004); assay type: functional, cell-based; settings: Homo sapiens;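 note: NF-kB luciferase reporter Jurkat cells stimulated with PMA plus ionomycin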
# [30] = inhibitors of firefly luciferase expression or activity, dose response, H4 neuroglioma cells, luminescence (AID 1990); assay type: functional, cell-based
# [31] = inhibitors of SNCA 5'UTR-driven translation, confirmation, luminescence, H4 neuroglioblastoma cells, dose confirmation (AID 2454); assay type: functional, cell-based;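 note: H4 neuroglioblastoma cells carrying an alpha-synuclein 5'UTR luciferase reporter; potency for inhibition of the luciferase signal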
# [32] = cells; assay type: functional, cell-based
# [33] = inhibitors of SNCA 5'UTR-driven reporter translation, confirmation, H4 neuroglioma cells, luminescence (AID 1988); assay type: functional, cell-based
# T5 sequence (P51452 whole entry): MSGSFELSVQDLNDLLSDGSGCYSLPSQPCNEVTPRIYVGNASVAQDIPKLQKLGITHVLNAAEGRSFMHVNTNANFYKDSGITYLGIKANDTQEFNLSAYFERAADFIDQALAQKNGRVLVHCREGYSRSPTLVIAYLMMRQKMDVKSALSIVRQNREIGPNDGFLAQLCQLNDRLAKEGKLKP
# Keap1/Nrf2, sequence (Q16236 whole entry): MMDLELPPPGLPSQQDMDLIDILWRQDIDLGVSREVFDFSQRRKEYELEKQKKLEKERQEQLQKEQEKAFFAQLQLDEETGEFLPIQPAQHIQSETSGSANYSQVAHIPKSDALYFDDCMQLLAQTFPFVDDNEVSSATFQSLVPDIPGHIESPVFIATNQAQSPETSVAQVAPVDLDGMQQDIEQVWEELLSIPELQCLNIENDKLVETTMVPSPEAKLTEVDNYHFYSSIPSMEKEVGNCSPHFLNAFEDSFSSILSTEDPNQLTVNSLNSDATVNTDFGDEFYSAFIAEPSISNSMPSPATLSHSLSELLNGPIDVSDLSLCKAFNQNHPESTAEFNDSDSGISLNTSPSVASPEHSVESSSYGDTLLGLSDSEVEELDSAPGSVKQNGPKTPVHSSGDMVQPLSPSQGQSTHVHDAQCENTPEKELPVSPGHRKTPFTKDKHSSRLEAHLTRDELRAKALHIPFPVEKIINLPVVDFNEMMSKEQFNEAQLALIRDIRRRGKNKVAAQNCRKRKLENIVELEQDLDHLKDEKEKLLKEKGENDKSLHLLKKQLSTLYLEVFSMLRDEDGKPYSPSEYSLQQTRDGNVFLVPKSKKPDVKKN
# Keap1/Nrf2, sequence (Q14145 whole entry): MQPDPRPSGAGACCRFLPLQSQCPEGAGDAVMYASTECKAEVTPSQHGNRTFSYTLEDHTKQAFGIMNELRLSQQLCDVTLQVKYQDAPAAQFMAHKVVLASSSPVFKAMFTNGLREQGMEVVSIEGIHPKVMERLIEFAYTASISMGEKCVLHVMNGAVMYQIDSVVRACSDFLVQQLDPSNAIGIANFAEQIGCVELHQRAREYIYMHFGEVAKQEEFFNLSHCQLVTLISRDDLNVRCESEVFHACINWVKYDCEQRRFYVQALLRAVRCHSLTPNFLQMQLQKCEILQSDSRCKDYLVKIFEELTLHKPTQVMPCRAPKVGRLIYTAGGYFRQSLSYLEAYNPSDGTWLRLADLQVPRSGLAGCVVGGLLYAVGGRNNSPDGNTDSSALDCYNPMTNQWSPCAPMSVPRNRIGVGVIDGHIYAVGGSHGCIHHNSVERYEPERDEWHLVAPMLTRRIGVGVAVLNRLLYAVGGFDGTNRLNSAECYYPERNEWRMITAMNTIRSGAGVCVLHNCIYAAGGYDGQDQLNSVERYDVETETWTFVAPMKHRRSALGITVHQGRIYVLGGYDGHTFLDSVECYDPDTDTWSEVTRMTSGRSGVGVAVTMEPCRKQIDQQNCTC
# Cytochrome P450 2D6, sequence (P10635 whole entry): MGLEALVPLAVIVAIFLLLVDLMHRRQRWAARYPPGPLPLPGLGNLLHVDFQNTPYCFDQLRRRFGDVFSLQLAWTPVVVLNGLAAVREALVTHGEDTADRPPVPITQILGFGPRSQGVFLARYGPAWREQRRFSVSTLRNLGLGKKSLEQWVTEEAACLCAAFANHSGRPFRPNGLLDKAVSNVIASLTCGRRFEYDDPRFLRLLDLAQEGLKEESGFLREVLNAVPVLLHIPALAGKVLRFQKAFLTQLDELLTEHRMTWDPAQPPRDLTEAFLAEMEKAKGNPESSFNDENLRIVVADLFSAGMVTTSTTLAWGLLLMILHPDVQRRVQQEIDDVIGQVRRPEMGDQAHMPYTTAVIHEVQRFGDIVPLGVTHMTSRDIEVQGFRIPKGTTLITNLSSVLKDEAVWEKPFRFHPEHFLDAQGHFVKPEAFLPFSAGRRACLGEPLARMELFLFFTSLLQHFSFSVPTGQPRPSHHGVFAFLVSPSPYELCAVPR
# Hexokinase-1, sequence (P19367 whole entry, the tested form may be a part): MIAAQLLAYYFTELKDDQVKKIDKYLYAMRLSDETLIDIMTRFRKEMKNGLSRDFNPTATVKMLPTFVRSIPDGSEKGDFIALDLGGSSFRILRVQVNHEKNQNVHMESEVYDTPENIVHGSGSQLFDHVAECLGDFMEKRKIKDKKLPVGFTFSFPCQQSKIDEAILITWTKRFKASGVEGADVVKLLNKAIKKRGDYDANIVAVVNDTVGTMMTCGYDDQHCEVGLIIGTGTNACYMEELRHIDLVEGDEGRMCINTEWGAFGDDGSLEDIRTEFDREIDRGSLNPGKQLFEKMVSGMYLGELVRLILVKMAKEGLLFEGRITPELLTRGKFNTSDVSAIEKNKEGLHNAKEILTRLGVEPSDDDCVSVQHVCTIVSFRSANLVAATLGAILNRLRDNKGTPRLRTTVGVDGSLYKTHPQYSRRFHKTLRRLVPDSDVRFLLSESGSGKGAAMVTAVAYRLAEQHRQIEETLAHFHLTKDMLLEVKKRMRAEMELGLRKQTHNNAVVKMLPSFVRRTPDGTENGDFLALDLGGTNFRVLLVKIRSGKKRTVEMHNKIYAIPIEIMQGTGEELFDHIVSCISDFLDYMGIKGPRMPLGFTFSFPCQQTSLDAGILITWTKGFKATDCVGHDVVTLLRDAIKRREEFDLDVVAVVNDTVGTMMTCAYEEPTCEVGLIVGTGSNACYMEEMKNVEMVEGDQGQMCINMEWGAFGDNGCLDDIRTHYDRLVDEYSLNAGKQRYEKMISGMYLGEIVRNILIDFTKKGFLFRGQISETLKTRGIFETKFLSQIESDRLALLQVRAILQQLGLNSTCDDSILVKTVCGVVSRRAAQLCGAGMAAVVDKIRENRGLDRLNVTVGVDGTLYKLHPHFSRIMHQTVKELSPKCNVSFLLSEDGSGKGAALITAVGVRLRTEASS
# ATP-dependent molecular chaperone HSP82, sequence (C4YTQ8 whole entry, the tested form may be a part): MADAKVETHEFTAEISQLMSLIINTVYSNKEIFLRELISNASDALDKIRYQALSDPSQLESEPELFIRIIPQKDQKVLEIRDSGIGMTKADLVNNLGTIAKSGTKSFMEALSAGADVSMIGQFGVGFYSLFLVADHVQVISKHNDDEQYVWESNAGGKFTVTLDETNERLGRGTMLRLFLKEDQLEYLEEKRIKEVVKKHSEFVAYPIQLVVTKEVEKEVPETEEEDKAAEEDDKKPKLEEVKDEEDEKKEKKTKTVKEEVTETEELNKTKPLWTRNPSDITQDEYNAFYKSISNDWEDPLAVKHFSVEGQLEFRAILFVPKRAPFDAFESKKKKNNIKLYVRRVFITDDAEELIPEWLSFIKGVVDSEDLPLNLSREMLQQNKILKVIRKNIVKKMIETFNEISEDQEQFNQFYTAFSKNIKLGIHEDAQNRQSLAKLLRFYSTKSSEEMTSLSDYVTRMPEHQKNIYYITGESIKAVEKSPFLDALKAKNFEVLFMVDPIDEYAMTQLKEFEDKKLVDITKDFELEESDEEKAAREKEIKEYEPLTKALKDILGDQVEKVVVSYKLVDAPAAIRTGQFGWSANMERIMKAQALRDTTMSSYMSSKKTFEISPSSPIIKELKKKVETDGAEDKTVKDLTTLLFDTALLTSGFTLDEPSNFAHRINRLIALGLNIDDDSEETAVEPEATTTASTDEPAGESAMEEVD
# Tyrosine-protein phosphatase non-receptor type 7, sequence (P35236 whole entry): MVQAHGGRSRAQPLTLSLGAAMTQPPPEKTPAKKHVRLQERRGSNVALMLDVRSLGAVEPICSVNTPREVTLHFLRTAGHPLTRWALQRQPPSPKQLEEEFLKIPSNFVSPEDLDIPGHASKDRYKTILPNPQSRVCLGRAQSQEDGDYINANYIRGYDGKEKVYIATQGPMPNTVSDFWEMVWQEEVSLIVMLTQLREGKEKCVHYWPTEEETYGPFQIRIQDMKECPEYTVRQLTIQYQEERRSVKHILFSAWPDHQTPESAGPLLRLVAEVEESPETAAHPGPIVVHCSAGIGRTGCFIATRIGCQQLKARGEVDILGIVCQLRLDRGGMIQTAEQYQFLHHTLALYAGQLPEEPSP
# Cytochrome P450 2C9, sequence (P11712 whole entry): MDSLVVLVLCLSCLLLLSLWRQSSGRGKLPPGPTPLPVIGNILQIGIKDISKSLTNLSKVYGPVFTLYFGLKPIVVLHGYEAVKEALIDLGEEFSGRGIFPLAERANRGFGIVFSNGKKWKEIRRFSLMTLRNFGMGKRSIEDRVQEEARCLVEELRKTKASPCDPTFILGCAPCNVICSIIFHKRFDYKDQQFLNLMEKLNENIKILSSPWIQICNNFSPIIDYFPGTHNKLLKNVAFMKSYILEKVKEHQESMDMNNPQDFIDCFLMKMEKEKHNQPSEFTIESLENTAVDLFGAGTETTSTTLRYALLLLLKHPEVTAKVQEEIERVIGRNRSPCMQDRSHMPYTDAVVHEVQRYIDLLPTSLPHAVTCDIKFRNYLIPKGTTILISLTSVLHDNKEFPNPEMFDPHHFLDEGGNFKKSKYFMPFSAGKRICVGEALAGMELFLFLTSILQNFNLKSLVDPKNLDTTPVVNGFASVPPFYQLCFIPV
# Serine/threonine-protein phosphatase, sequence (B9W6M3 whole entry): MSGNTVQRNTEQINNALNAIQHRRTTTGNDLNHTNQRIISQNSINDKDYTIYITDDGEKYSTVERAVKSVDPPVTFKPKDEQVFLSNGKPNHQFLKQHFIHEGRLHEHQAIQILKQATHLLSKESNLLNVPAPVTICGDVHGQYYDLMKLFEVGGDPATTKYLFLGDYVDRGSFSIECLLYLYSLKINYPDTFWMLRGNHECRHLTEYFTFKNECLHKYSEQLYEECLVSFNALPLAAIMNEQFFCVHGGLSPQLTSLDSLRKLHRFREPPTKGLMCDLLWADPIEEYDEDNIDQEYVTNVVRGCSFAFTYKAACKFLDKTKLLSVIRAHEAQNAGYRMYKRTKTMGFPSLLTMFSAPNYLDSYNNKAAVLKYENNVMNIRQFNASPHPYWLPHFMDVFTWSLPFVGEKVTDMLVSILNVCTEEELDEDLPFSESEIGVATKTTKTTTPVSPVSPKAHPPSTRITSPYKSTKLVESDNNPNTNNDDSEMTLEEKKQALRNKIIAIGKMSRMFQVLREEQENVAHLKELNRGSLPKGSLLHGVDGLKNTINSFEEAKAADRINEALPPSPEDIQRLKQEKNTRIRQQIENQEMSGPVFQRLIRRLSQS
smiles,measurement,setting,value
CN1CCC2(CC1)C1CN(C)CC=C1C(C#N)=C(N)C2(C#N)C#N (stereo not drawn),EC50,[1],9 µM (active)
same,AC50,[2],20 µM (inconclusive)
same,AC50,[3],14.1 µM (inconclusive)
same,AC50,[4],> 52 µM (inactive)
Cc1cccc(N2C(=O)/C(=C/c3cccnc3)SC2=S)c1,AC50,[5],51.7 µM (active)
O=c1c2ccccc2nc(/C=C/c2ccc(Cl)cc2)n1Cc1ccccc1,IC50,[6],> 80 µM (inactive)
same,IC50,[7],> 80 µM (inactive)
COc1ccc(S(=O)(=O)N(C)C[C@@H]2Oc3c(NC(=O)Nc4cccc5c4CCCC5)cccc3C(=O)N([C@@H](C)CO)C[C@H]2C)cc1,AC50,[8],52.3 µM (active)
O=C(Nc1ccc2c(c1)CCC2)c1ccccc1Br,IC50,[9],> 67.6 µM (inactive)
same,IC50,[10],> 67.6 µM (inactive)
same,AC50,[11],8.42 µM (active)
O=C(c1ccccc1)N1CCN(c2ccccn2)CC1,AC50,[12],184 µM (active)
CCOC(=O)C1=C(c2ccccc2)N=c2sc(=Cc3cc(OC)c(OC)c(OC)c3)c(=O)n2C1c1cccs1 (stereo not drawn),IC50,[13],> 50 µM (inactive)
same,IC50,[14],> 50 µM (inactive)
same,IC50,[15],> 50 µM (inactive)
same,IC50,[16],> 50 µM (inactive)
CC1CC(C)CN(CCOCCSc2ccccc2)C1 (stereo not drawn),EC50,[17],0.098 µM (active)
same,EC50,[18],0.098 µM (active)
same,EC50,[19],> 195 µM (not active)
CC(=O)N1CCC2(CC1)CN(c1ccncc1)C2,AC50,[20],inconclusive
same,AC50,[21],inconclusive
COc1cccc(C2CC(c3ccc(NS(C)(=O)=O)cc3)=NN2C(=O)c2ccccc2)c1OC (stereo not drawn),EC50,[22],> 150 µM (inactive)
same,EC50,[23],> 180 µM (inactive)
same,EC50,[24],1.17 µM (active)
same,EC50,[25],> 150 µM (inactive)
Cc1nn(C(C)(C)C)c(C)c1/C=N/OC(=O)Nc1ccc(Cl)cc1,EC50,[26],0.059 µM (active)
same,EC50,[27],< 0.1 µM (active)
same,IC50,[28],> 80 µM (inactive)
same,IC50,[29],< 0.16 µM (active)
same,EC50,[30],< 0.1 µM (active)
same,EC50,[31],0.037 µM (active)
same,EC50,[32],0.075 µM (active)
same,EC50,[33],< 0.1 µM (active)
